Experimental data taken from US10154813B1, “Method and apparatus for patient skin color monitoring and drug efficacy measurement” (priority 2017, dated 2018).
Several values for one entry are separate records, joined by “and”; a condition that tells them apart may be missing. Equal entries are not always repeated.

Test system: microvascular endothelium (skin, right arm, anterior position) of Congestive Heart Failure patients
Assay: Skin colorimetry (a, b, L) before and after application of “μ” in Congestive Heart Failure patients on Valsartan, monthly for 9 months
Format: in vivo, human
Parameters: key to a. Wet after “μ”: a = red/green colour coordinate (colorimeter); key to b (Wet): b = yellow/blue colour coordinate (colorimeter)
Details: for L (Wet) / a. Wet after “μ” / b (Wet): wet after μ; for L / a / b: baseline before μ
From the text: As stated above, one available quantitative color system is the L*a*b* color space or Hunter L/a/b color space, which can be visualized as a rectangular 3D coordinate system. L indicates lightness, a is the red/green coordinate, and b is the yellow/blue coordinate. L can have a value from 0 (black) to 100 (perfect reflection). The a and b axes have no numerical limits. Coordinate a is positive when red, and negative when green. Positive b is yellow, and negative b is blue. Colors can be described numerically using numerical values for L, a, and b. Differences between two colors can be quantified for each of the individual L/a/b values (ΔL, Δa, Δb). Overall differences between two colors can be derived numerically based on the three Δ values.
μ=drug applied before colorimeter and/or spectrophotometer measurements.
L1, a1, b1=Initial measurement.
L2, a2, b2=Measurement with μ applied. L2−L1=ΔLμ(L2 minus L1)=change in lightness and darkness(+=lighter,−=darker) a2−a1=Δaμ(a2 minus a1)=change in red and green(+=redder,−=greener) b2−b1=Δbμ(b2 minus b1)=change in yellow and blue(+=yellower,−=bluer)
With reference to the tables below and to FIG. 18, the three different patients (Patient A, Patient B, and Patient C) had new diagnosis of Congestive Heart Failure (CHF). Patient A, B, C have diastolic and systolic heart failure with an ejection fraction of 35% with normal coronary artery disease by angiography. All three patients were started on an angiotensin receptor blocker Valsartan and followed continuously every month for 9 months. The a, b, L were calculated before and after the “μ” has been applied shown in color red. The blue indicates the baseline. At the initiation of the CHF medication Valsartan, the patient has a normal response of the microvascular endothelium after the application of “μ” in the calculations of a, b, L. All colorimetric and spectrophotometric calculations are performed at the same location on the right arm, in the anterior position in all three patients continuously for 9 months. The titration of Valsartan was maximized in all three patients. […] This occurs because it is the desired effect of the CHF medication in the above patients over the period of 9 months. The current standard of care is to improve the heart function in CHF. The cardiologist lowers the ionotropic and chronotropic effect of the heart in CHF patients. The above methodology allows for the appropriate and desired effect in being able to titrate the medication and know how much medicine to administer to the patient by either decreasing or increasing the Valsartan dose. This is performed to achieve the necessary effect of pharmacotherapy with limiting the exacerbation of heart failure symptoms in such patients. It allows for healthcare providers to also know if the effects of the medications are adequate and they are in fact working appropriately on the microscopic endothelium level of the patient. As the months progressed in the patients above, the red line calculations indicate a decreased microvascular endothelial flow. This is evaluated by measuring a decrease in the a shift.
This correlates with a decrease in the ionotropic and chronotropic effect of the heart in these patients. This is the desired effect and outcome that the cardiologist is trying to achieve. The calculation of a, b, L, after “μ” is applied is objectively calculated in these CHF patients, allowing for the proper titration of maximum medication administration while limiting the side effects of the medications concurrently.

CCCCC(=O)N(Cc1ccc(-c2ccccc2-c2nnn[nH]2)cc1)[C@H](C(=O)O)C(C)C [Valsartan]
L (Wet) (Patient B, April 2017): 72.58
a. Wet after “μ” (Patient B, April 2017): 3.03
b (Wet) (Patient B, April 2017): 15.69
L (Wet) (Patient B, December 2016): 73.59
a. Wet after “μ” (Patient B, December 2016): 4.04
b (Wet) (Patient B, December 2016): 15.27
L (Wet) (Patient B, February 2017): 72.56
a. Wet after “μ” (Patient B, February 2017): 3.3
b (Wet) (Patient B, February 2017): 14.4
L (Wet) (Patient B, January 2017): 74.23
a. Wet after “μ” (Patient B, January 2017): 3.37
b (Wet) (Patient B, January 2017): 15.38
L (Wet) (Patient B, July 2017): 72.54
a. Wet after “μ” (Patient B, July 2017): 2.25
b (Wet) (Patient B, July 2017): 14.39
L (Wet) (Patient B, June 2017): 72.47
a. Wet after “μ” (Patient B, June 2017): 2.88
b (Wet) (Patient B, June 2017): 15.29
L (Wet) (Patient B, March 2017): 72.62
a. Wet after “μ” (Patient B, March 2017): 3.29
b (Wet) (Patient B, March 2017): 15.85
L (Wet) (Patient B, May 2017): 73.47
a. Wet after “μ” (Patient B, May 2017): 3.71
b (Wet) (Patient B, May 2017): 15.54
L (Wet) (Patient B, November 2016): 70.43
a. Wet after “μ” (Patient B, November 2016): 4.89 and 4.79
b (Wet) (Patient B, November 2016): 15.14
L (Patient C, April 2017): 73.05
a (Patient C, April 2017): 3.16
b (Patient C, April 2017): 16.12
L (Patient C, December 2016): 75.47
a (Patient C, December 2016): 2.84
b (Patient C, December 2016): 13.73
L (Patient C, February 2017): 73.55
a (Patient C, February 2017): 3.64
b (Patient C, February 2017): 14.96
L (Patient C, January 2017): 74.63
a (Patient C, January 2017): 3.93
b (Patient C, January 2017): 15.73
L (Patient C, July 2017): 75.00
a (Patient C, July 2017): 3.55
b (Patient C, July 2017): 14.75
L (Patient C, June 2017): 74.45
a (Patient C, June 2017): 3.44
b (Patient C, June 2017): 14.63
L (Patient C, March 2017): 74.06
a (Patient C, March 2017): 3.20
b (Patient C, March 2017): 14.54
L (Patient C, May 2017): 75.26
a (Patient C, May 2017): 3.50
b (Patient C, May 2017): 15.22
L (Patient C, November 2016): 73.84
a (Patient C, November 2016): 3.35
b (Patient C, November 2016): 14.01
L (Wet) (Patient C, April 2017): 72.89
a. Wet after “μ” (Patient C, April 2017): 2.95
b (Wet) (Patient C, April 2017): 17.26
L (Wet) (Patient C, December 2016): 72.57
a. Wet after “μ” (Patient C, December 2016): 4.84
b (Wet) (Patient C, December 2016): 14.8
L (Wet) (Patient C, February 2017): 72.41
a. Wet after “μ” (Patient C, February 2017): 3.07
b (Wet) (Patient C, February 2017): 15.66
L (Wet) (Patient C, January 2017): 74.12
a. Wet after “μ” (Patient C, January 2017): 3.18
b (Wet) (Patient C, January 2017): 15.31
L (Wet) (Patient C, July 2017): 74.72
a. Wet after “μ” (Patient C, July 2017): 2.3
b (Wet) (Patient C, July 2017): 14.39
L (Wet) (Patient C, June 2017): 72.13
a. Wet after “μ” (Patient C, June 2017): 2.75
b (Wet) (Patient C, June 2017): 15.6
L (Wet) (Patient C, March 2017): 73.55
a. Wet after “μ” (Patient C, March 2017): 3.05
b (Wet) (Patient C, March 2017): 13.67
L (Wet) (Patient C, May 2017): 73.69
a. Wet after “μ” (Patient C, May 2017): 3.1
b (Wet) (Patient C, May 2017): 15.17
L (Wet) (Patient C, November 2016): 71.42
a. Wet after “μ” (Patient C, November 2016): 4.99
b (Wet) (Patient C, November 2016): 14.01
effect on flow to the microvascular circulation of the endothelium (a shift after μ) (Patients A, B, C, at rest, over 9 months, maximized titration): a decrease in the flow to the microvascular circulation of the endothelium at rest
